Experimental data published in patent publication US20250034264A1, “REGULATING T CELL IMMUNE RESPONSE THROUGH IGF-I RECEPTOR (IGF-1R)” (The Regents of the University of Michigan, priority 2021, published 2025).

Experiments:
Format in all cases: cell-based, human
[1] = tested on: fibrocyte-adherent CD4+ T cells; experiment: IL-17A and INFγ in fibrocyte-adherent CD4+ T cells (flow cytometry)
Description: Invariably, a small population of tightly adherent T cells were found in the fibrocyte cultures, consistent with the previous findings. Culture viability was routinely verified to be >90%. CD4^+ T cells were enriched using the CD4 isolation cocktail (Cat #0.130-096-533, Miltenyi Biotec, San Diego, CA) followed by negative selection using a magnetic column (Cat #0.130-042-401) according to manufacturer's protocol. Fibrocytes and isolated T cells were cultured and remained untreated or were incubated with human IgG isotype control (5 μg/ml) or teprotumumab (50 μg/mL) for 7 to 9 days. Single cell suspensions were stained with anti-human CD4, CD3, CD34, MHC-2, CD80, CD86, and PD-L1 (BD Biosciences) for 30 min, rinsed and fixed with CytoPerm/CytoFix (BD). They were then stained with anti-human INFγ and IL-17A for 20 min, rinsed, and subjected to the flow cytometry analysis. Gated CD34^+CXCR4^+ fibrocytes and CD4^+CD3^+ T cells were analyzed using quadrant settings based on negative isotype staining.
In vitro studies of CD34^+ fibrocytes and T cells PBMC and GD-OF monolayers were treated in vitro with human IgG isotype control (5 μg/ml), teprotumumab (50 μg/mL), H7 (5 μg/mL), linsitinib (1 μM), bTSH (5 mIU/mL), M22 (1 μg/mL), or IGF-1 (10 nM) for the intervals indicted in the figure legends in a 37° C., 5% CO2, humidified incubator until confluent. Brefeldin A (0.66 μl/ml), (Golgi Stop™, BD Biosciences), phorbol 12-myristate 13-acetate (PMA) (50 ng/ml) and ionomycin (1 μg/mL) were added for 5 h. Cells were rinsed with flow cytometry buffer (1×PBS, 0.5% BSA, 0.1% sodium azide) and stained with the relevant monoclonal antibodies.

[2] = tested on: fibrocyte/adherent T cell co-cultures; experiment: IL-17A and INFγ released into culture medium (ELISA); conditions: 50 μg/mL, day 9
From the text: ELISAs Media were collected from cultures treated as indicated and analyzed for concentrations of […] and IL-17A using specific ELISA kits (R&D systems) according to the manufacture's protocol.

fibrocytes [3] = experiment: IL-23p19 and IL-12p35 mRNA expression, real-time PCR; conditions: teprotumumab 50 μg/ml or linsitinib 1 μM, 7-9 d
Description: FIGS. 10A-10F are graphs showing the divergent effect of teprotumumab on bTSH induced IL-23p19 and IL-12p35 expression on fibrocytes and GD-OF. Rinsed fibrocyte and GD-OF monolayers were incubated with or without 50 μg/ml teprotumumab (FIGS. 10A and 10B) or 1 μM linsitinib (FIGS. 10C and 10D) and human Isotype IgG for 7-9 d, and bTSH (5 mIU/mL) was added for 6 h. Harvested RNA was reverse transcribed and isolated cDNA was subjected to quantitative real-time PCR for IL-23p19 and IL-12p35 mRNA levels. Values were normalized to their respective GAPDH levels and are expressed as the mean±SD of three independent determinations. Experiments were repeated three times. FIGS. 10E and 10F are graphs showing the levels of IL-23 protein when rinsed fibrocyte and GD-OF monolayers were incubated with or without 50 μg/ml teprotumumab. **, p<0.01; ***. P<0.001.
(§1) Real-time PCR Confluent fibrocyte and GD-OF cultures were incubated with bTSH (5 mIU/mL), teprotumumab (50 μg/mL) or linsitinib (1 μM) for the time intervals indicated, washed with PBS and RNA was extracted with the Aurum Total RNA Mini Kit (cat. #732-6820, Bio-Rad, Hercules, CA). Cellular RNA (2 μg) was reverse transcribed using QuantiTect Reverse Transcription kit (cat. #205314, Qiagen (Germantown, MD) and real-time PCR was performed using an Applied Biosystems instrument with QuantiTect SYBR Green PCR kit (cat. no. 204143; Qiagen, Frederick, MD). Primer sequences were as follows.

GD-OF [4] = experiment: Hyaluronan (HA) production, ELISA; conditions: 50 μg/ml, over 96 h
Description: (§2) FIGS. 13A-13B are graphs showing the effect of teprotumumab on bTSH induced hyaluronan (HA) production in GD-OF (FIG. 13A) and fibrocytes (FIG. 13B). GD-OF were treated with or without teprotumumab (50 μg/ml) or human Isotype IgG (5 μg/ml) for 7-9 d and stimulated with bTSH (5 mIU/mL) for graded intervals indicated along the abscissa for 0 to 96h. Media were collected and subjected to HA ELISA. Values were normalized to respective cell layer protein levels and expressed as the mean±SD of three independent determinations. Experiments were repeated three times. FIGS. 13C-13F are graphs showing the divergent pattern of hyaluronan synthase (HAS) isoenzyme induction by bTSH in fibrocytes versus GD-OF and effects of teprotumumab (FIGS. 13C and 13D) and linsitinib (FIGS. 13E and 13F). Confluent monolayers of GD-OF and fibrocytes remained untreated or received teprotumumab (50 μg/ml) or linsitinib (1 μM) and human Isotype IgG for 7-9 d. Some cultures were treated with bTSH (5 mIU/mL) for 6h. Cellular RNA was harvested mRNA was reverse transcribed, and cDNA subjected to quantitative real-time PCR for HAS1 and HAS2. Values were normalized to their respective GAPDH levels and are expressed as the mean±SD of three independent determinations. Experiments were repeated three times. *, P<0.05; **, p<0.01; ***. P<0.001.
(§3) IL-12, IL-23, IL-10, HA and BAFF ELISAs. […]

fibrocytes [5] = experiment: Hyaluronan (HA) production, ELISA; conditions: 50 μg/ml
Description: as §2, §3

GD-OF [6] = experiment: Slit2 and ROBO1 mRNA and Slit2 protein; conditions: 50 μg/ml, 3 d
Description: FIGS. 14A-14B are graphs showing teprotumumab induces Slit2 and roundabout 1 (ROBO1) mRNA and Slit2 protein in GD-OF. Cultures were treated with either isotype control IgG or teprotumumab (50 μg/ml) for 3 d. Culture media were collected and subjected to Slit2-specific ELISA (FIG. 14A). Levels of Slit2 were normalized to respective cell layer protein content. Cellular RNA was harvested from rinsed cell layers and mRNA reverse transcribed, and cDNA subjected to quantitative real-time PCR for Slit2 and ROBO1 (FIG. 14B). Values were normalized to their respective GAPDH levels. * *, p<0.01, * **, p<0.001.
as §1

teprotumumab
INFγ MFI ([1]; 50 μg/mL, 9 d, control MFI 64.01±10.15): 26.80±5.61
IL-17A MFI ([1]; 50 μg/mL, 9 d, control isotype MFI 76.03±14.17): 65.17±5.61
abundance of adherent CD3+CD4+ T cells ([1]; cultures from both donor cohorts): substantially reduced
reduction of IL-17A released into the culture media [2]: 52%
reduction of INFγ released into the culture media [2]: 54%
IL-12p35 expression, basal and induction by bTSH (fibrocytes [3]): enhances
IL-23p19 expression, basal and induction by bTSH (fibrocytes [3]): inhibited
effects of bTSH on HA synthesis (GD-OF [4]): enhanced
HA synthesis, bTSH with teprotumumab (fibrocytes [5]): synergism
Slit2 protein synthesis (GD-OF [6]; ELISA): increased
ROBO1 mRNA expression (GD-OF [6]; three strains of GD-OF): induced
Slit2 mRNA expression (GD-OF [6]; three strains of GD-OF): induced
